From US12011449B2, “Therapeutic combinations comprising a c-RAF inhibitor” (Novartis AG, priority 2016, dated 2024)
pIC50: −log10 of the molar value. Like-named read-outs stand apart in the source and are kept apart here.

What was measured:
[1] = tested on: Calu-6 human NSCLC xenograft; assay: Calu-6 NSCLC subcutaneous xenograft, single agents and combination; format: in vivo; conditions: for durability of tumor response: under treatment, 42 days post dosing
Procedure: Calu-6 NSCLC tumors were established in athymic female mice by subcutaneous injection of 10 million cells in 50% Matrigel™ into the flank of each mouse. […] A-B) Tumor volumes of treatment groups vs. days post randomization. C) Mean percent change in body weight from initial.
Combined treatment with Compound A and Compound B led to increased depth and durability of tumor response compared to either single agent in the human NSCLC xenograft Calu-6. […] Combining Compound A dosed at 30 mg/kg qd with Compound B dosed at either 50 mg/kg qd or 75 mg/kg q2d achieved 66% and 51% regressions, respectively, 17 days post dosing. In addition to the increased depth of response, the combination of Compound A and Compound B also led to an increased durability of response.

HeyA8 (KRAS^G12D) = assay: 3 day proliferation assay, HeyA8; format: cell-based; conditions: Homo sapiens, HEY A8, 72 h, read-out: IC50 cell growth
AsPC-1 (KRAS^G12D) = assay: 3 day proliferation assay, AsPC-1; format: cell-based; conditions: Homo sapiens, ASPC1, 72 h, read-out: IC50 cell growth
Calu6 (KRAS^Q61K) = assay: 3 day proliferation assay, Calu6; format: cell-based; conditions: Homo sapiens, Calu-6, 72 h, read-out: IC50 cell growth
PSN1 (KRAS^G12R) = assay: 3 day proliferation assay, PSN1; format: cell-based; conditions: Homo sapiens, 72 h, read-out: IC50 cell growth
A375 [2] = assay: Anti-proliferative effect in mechanistic A375 models, parental A375; format: cell-based; conditions: Homo sapiens, A-375, 72 hours, CellTiter-Glo
Procedure: (§1) To investigate the activity of Compound A in BRAF V600 mutant melanoma cells refractory to BRAF and/or MEK inhibitors, the anti-proliferative activity of Compound A in the mechanistic models derived from the BRAF V600 melanoma cell line A375 expressing mutations of MEK1/2, NRAS, or a splice variant of BRAF was evaluated.

A375/NRAS Q61K = assay: Anti-proliferative effect in mechanistic A375 models, A375/NRAS Q61K; format: cell-based; conditions: Homo sapiens, A-375, doxycycline-induced, 72 hours
Procedure: as §1

A375/BRAFp61-V600E = assay: Anti-proliferative effect in mechanistic A375 models, A375/BRAFp61-V600E; format: cell-based; conditions: Homo sapiens, A-375, doxycycline-induced, 72 hours
Procedure: as §1

A375/MEK1 Q56P = assay: Anti-proliferative effect in mechanistic A375 models, A375/MEK1 Q56P; format: cell-based; conditions: Homo sapiens, A-375, doxycycline-induced, 72 hours
Procedure: as §1

A375/MEK1 C121S = assay: Anti-proliferative effect in mechanistic A375 models, A375/MEK1 C121S; format: cell-based; conditions: Homo sapiens, A-375, doxycycline-induced, 72 hours
Procedure: as §1

A375/MEK1 E203K = assay: Anti-proliferative effect in mechanistic A375 models, A375/MEK1 E203K; format: cell-based; conditions: Homo sapiens, A-375, doxycycline-induced, 72 hours
Procedure: as §1

A375/MEK2 Q60P = assay: Anti-proliferative effect in mechanistic A375 models, A375/MEK2 Q60P; format: cell-based; conditions: Homo sapiens, A-375, doxycycline-induced, 72 hours
Procedure: as §1

[3] = tested on: NCI-H358 (KRAS G12C) xenograft; assay: NCI-H358 xenograft in mice; format: in vivo; conditions: 200 mg/kg QD
Procedure: (§2) SCID beige female tumor-bearing NCI-H358 mice, n=8 per group, were randomized into 3 groups 14 days post tumor cell inoculation with an average tumor volume range of 259.44-262.47 mm^3.
(§3) Regressions were also achieved in a second human NSCLC model, NCI-H358, at the 200 mg/kg QD dose in mice and in the human ovarian Hey-A8 xenograft at doses as low as 30 mg/kg QD in mice.

[4] = Clinical PK of Compound A tablets, once daily, fasted subjects; format: in vivo, human; conditions: plasma; for AUC: day 1 of dosing, read-out: Mean plasma exposure over the dose interval of 24 hours (AUCtau); for Cmax: oral tablets, fasted subjects, read-out: Maximum plasma concentration (Cmax)
Procedure: Compound A was formulated with hydroxypropylmethylcellulose/Hypromellose, colloidal silicon dioxide, microcrystalline cellulose, polyvinylpyrrolidone/Povidone and magnesium stearate, and formed into tablets containing about 50 mg of Compound A. A number of tablets sufficient to provide a desired dosage were administered once daily to fasted subjects. Subjects were treated at doses of 100 mg once per day, or 200 mg once per day. Serial blood samples for PK assessments were collected up to 48 hours after the first dose of Compound A (Cycle 1 Day 1), and up to 24 hours after multiple doses (Cycle 1 Day 15). […] Mean plasma exposure over the dose interval of 24 hours (AUCtau) on day 1 of dosing was 5679 hr·ng/ml and 10019 hr·ng/ml after the 100 mg and 200 mg doses of Compound A, respectively. […] As this study is on-going, all data presented are considered preliminary.

IPC298 = assay: Proliferation, CellTiter-Glo 72 h, IPC298; format: cell-based; conditions: Homo sapiens, IPC-298, IPC298, Melanoma, BRAF WT, NRAS Q61L
From the text: (§4) Note that activity is especially strong on cell lines that harbor at least one mutation in BRAF or RAS.

KRASmt NSCLC models = assay: Human KRAS-mutant xenograft models, overall statements; format: in vivo
Procedure: as §2
(§5) Female nude tumor bearing Calu6 mice, n=6 per group were randomized into treatment groups on day 17 following tumor implantation, when the average tumor volume was 180 mm3. Treatments with compound A were initiated on Day 17 and continued for 16 days. Dosing volume was 10 mL/kg. Tumor volumes were collected at the time of randomization and twice weekly thereafter for the study duration.
Nude female mice tumor bearing NCI-H358, n=8 per group, were randomized into 2 groups with an average tumor volume range of 275.74 mm3.

[5] = tested on: Calu-6 (KRAS Q61K), HCT116 (KRAS G13D); assay: Cell-based proliferation, Calu-6 and HCT116; conditions: Homo sapiens
WM2664 = assay: Proliferation, CellTiter-Glo 72 h, WM2664; format: cell-based; conditions: Homo sapiens, WM 266-4, WM2664, Melanoma, BRAF V600D, RAS WT
From the text: as §4

TCC-PAN2 = assay: Proliferation, CellTiter-Glo 72 h, TCC-PAN2; format: cell-based; conditions: Homo sapiens, TCC-PAN2, Pancreas, BRAF WT, KRAS G12R
From the text: as §4

[6] = tested on: non-small cell lung cancer (NSCLC); assay: Phase I dose finding study, tumor response (RECIST); format: in vivo, human; conditions: one NSCLC subject, 1200 mg QD, preliminary
Procedure: The recommended starting dose and regimen of Compound A single agent in this study is 100 mg QD orally based on the preclinical safety, tolerability data, PK/PD data obtained in preclinical studies, as well as exploratory human efficacious dose range projection. […] For maximum flexibility of dosing, Compound A may be prepared as 50 mg and/or 100 mg tablets for oral administration. A proposed formulation for clinical use of Compound A includes Compound A combined with one or more excipients selected from hydroxypropylmethylcellulose (Hypromellose), colloidal silicon dioxide, microcrystalline cellulose, polyvinylpyrrolidone (Povidone), and magnesium stearate, and can be prepared in the form of tablets for oral administration, suitably containing 50 mg or 100 mg of Compound A. This was further confirmed by preliminary results obtained from the clinical trial.

[7] = tested on: human ovarian Hey-A8 xenograft; assay: Hey-A8 ovarian xenograft in mice; format: in vivo; conditions: doses as low as 30 mg/kg QD
Procedure: as §3

Calu-6 = assay: Proliferation, CellTiter-Glo 72 h, Calu-6; format: cell-based; conditions: Homo sapiens, Calu-6, NSCLC, BRAF WT, KRAS Q61K
From the text: as §4

[8] = tested on: Calu-6 (KRAS Q61K) xenograft; assay: Calu-6 xenograft in nude mice; format: in vivo
Procedure: as §5, §3

HeyA8 = assay: Proliferation, CellTiter-Glo 72 h, HeyA8; format: cell-based; conditions: Homo sapiens, HEY A8, HeyA8, Ovarian, BRAF G464E, KRAS G12D
From the text: as §4

PSN1 = assay: Proliferation, CellTiter-Glo 72 h, PSN1; format: cell-based; conditions: Homo sapiens, PSN1, Pancreas, BRAF WT, KRAS G12R
From the text: as §4

[9] = tested on: A375 derivatives expressing mutations of MEK1/2, NRAS, or a splice variant of BRAF; assay: IC50 shift of resistant A375 models versus parental A375; format: cell-based, human
Procedure: as §1

[10] = tested on: DUSP6 (dual specificity phosphatase 6); assay: DUSP6 pharmacodynamic biomarker in vivo; conditions: subject receiving a dosage associated with efficacious plasma levels
From the text: In addition, an efficacious dosage can be determined by monitoring biomarkers indicative of MAP kinase pathway inhibition.

[11] = tested on: Calu-6 (KRAS Q61K) xenograft; assay: Calu-6 xenograft in nude rats; format: in vivo
HCC827 = assay: Proliferation, CellTiter-Glo 72 h, HCC827; format: cell-based; conditions: Homo sapiens, HCC827, NSCLC, BRAF WT, RAS WT
From the text: as §4

NCI-H2073 = assay: Proliferation, CellTiter-Glo 72 h, NCI-H2073; format: cell-based; conditions: Homo sapiens, NCI-H2073, NSCLC, BRAF WT, RAS WT
From the text: as §4

PC3 = assay: Proliferation, CellTiter-Glo 72 h, PC3; format: cell-based; conditions: Homo sapiens, PC-3, PC3, Prostate, BRAF WT, RAS WT
From the text: as §4

HCT116 = assay: Proliferation, CellTiter-Glo 72 h, HCT116; format: cell-based; conditions: Homo sapiens, HCT-116, HCT116, Colorectal, BRAF WT, KRAS G13D
From the text: as §4

HuP-T4 = assay: Proliferation, CellTiter-Glo 72 h, HuP-T4; format: cell-based; conditions: Homo sapiens, HuP-T4, Pancreas, BRAF WT, KRAS G12V
From the text: as §4

A375 [12] = assay: Proliferation, CellTiter-Glo 72 h, A375; format: cell-based; conditions: Homo sapiens, A-375, A375, Melanoma, BRAF V600E, RAS WT
From the text: as §4

## CNC[C@@H](NC(=O)c1ccc(-c2nc([C@H]3CC[C@H](O)[C@@H](F)C3)cnc2N)cc1F)c1cc(F)cc(Br)c1 [Compound B, 4-(3-amino-6-((1S,3S,4S)-3-fluoro-4-hydroxycyclohexyl)pyrazin-2-yl)-N-((S)-1-(3-bromo-5-fluorophenyl)-2-(methylamino)ethyl)-2-fluorobenzamide]
[1]; Compound B 50 mg/kg qd, oral, 17 days post dosing
  regressions: 22%
[1]; Compound B 75 mg/kg q2d, oral, 17 days post dosing
  T/C: 4%
[1]
  durability of tumor response: progressed under treatment
HeyA8 (KRAS^G12D)
  pIC50: > 6.00
AsPC-1 (KRAS^G12D)
  pIC50: > 6.00
Calu6 (KRAS^Q61K)
  pIC50: > 6.00
PSN1 (KRAS^G12R)
  pIC50: > 6.00

## Cn1cnc2c(F)c(Nc3ccc(Br)cc3Cl)c(C(=O)NOCCO)cc21 [Selumetinib]
A375 [2]
  pIC50: 7.44
A375/NRAS Q61K
  pIC50: 5.26
A375/BRAFp61-V600E
  pIC50: < 5.00
A375/MEK1 Q56P
  pIC50: 5.27
A375/MEK1 C121S
  pIC50: 5.63
A375/MEK1 E203K
  pIC50: 5.74
A375/MEK2 Q60P
  pIC50: 5.32

## Cc1ccc(NC(=O)c2ccnc(C(F)(F)F)c2)cc1-c1cc(OCCO)nc(N2CCOCC2)c1 [Compound A, N-(3-(2-(2-hydroxyethoxy)-6-morpholinopyridin-4-yl)-4-methylphenyl)-2-(trifluoromethyl)isonicotinamide]
A375 [2]
  pIC50: 6.38
[3]
  anti-tumor effect: Regressions
[4]; human, oral, 100 mg
  AUC: 5680 ng·h/mL
[4]; human, oral, 200 mg
  AUC: 10000 ng·h/mL
[4]; human, oral, in patients
  half-life: 23 to 24 h
[4]; human, single 100 mg dose
  Cmax: 447 ng/mL
[4]; human, single 200 mg dose
  Cmax: 889 ng/mL
[4]; once daily dosing of 100 mg
  accumulation ratio: 1.8
A375/NRAS Q61K
  pIC50: 6.02
IPC298
  pIC50: 6.60
KRASmt NSCLC models; H358, Calu6, H727 models, oral daily
  single agent anti-tumor activity: showed single agent activity
KRASmt NSCLC models; in all cases (KRAS-mutant xenograft models)
  tolerability (body weight loss): well tolerated as judged by lack of significant body weight loss
A375/BRAFp61-V600E
  pIC50: 6.14
[5]
  pIC50: 5.92 to 6.70
WM2664
  pIC50: 6.35
TCC-PAN2
  pIC50: 6.38
[6]
  partial response according to RECIST: −35%
[7]
  anti-tumor effect: Regressions
[1]; Compound A 30 mg/kg qd, oral, 17 days post dosing
  T/C: 26%
[1]
  durability of tumor response: progressed under treatment
Calu-6
  pIC50: 5.82
A375/MEK1 Q56P
  pIC50: 5.94
[8]; mice, 30 mg/kg QD
  anti-tumor effect: Tumor stasis
[8]; nude mice, 100, 200, and 300 mg/kg once daily (QD)
  anti-tumor effect: regressions
A375/MEK1 C121S
  pIC50: 5.94
HeyA8
  pIC50: 6.68
A375/MEK1 E203K
  pIC50: 5.98
PSN1
  pIC50: 6.17
[9]
  increase in IC50 in resistant models: 2-3 fold
[10]
  in vivo levels of DUSP6: drop
[11]; nude rats, 75 and 150 mg/kg QD
  anti-tumor effect: regressions
[11]; rats, 35 mg/kg QD
  anti-tumor effect: Tumor stasis
Predicted human PK
  predicted half-life: ~9 h
HCC827
  pIC50: < 4.70
NCI-H2073
  pIC50: 4.74
PC3
  pIC50: < 4.70
A375/MEK2 Q60P
  pIC50: 5.95
HCT116
  pIC50: 6.33
HuP-T4
  pIC50: 6.19
A375 [12]
  pIC50: 6.62

## CCCS(=O)(=O)Nc1ccc(F)c(C(=O)c2c[nH]c3ncc(-c4ccc(Cl)cc4)cc23)c1F [Vemurafenib]
A375 [2]
  pIC50: 7.18
A375/NRAS Q61K
  pIC50: 5.03
A375/BRAFp61-V600E
  pIC50: 5.07
A375/MEK1 Q56P
  pIC50: 5.02
A375/MEK1 C121S
  pIC50: 5.06
A375/MEK1 E203K
  pIC50: 5.25
A375/MEK2 Q60P
  pIC50: 5.28
